# Measured values as given in publication PMC12349723, “Computationally accelerated identification of P-glycoprotein inhibitors” (PLOS One, 2025).
# Several values for one entry are separate records, joined by “and”; a condition that tells them apart may be missing. Identical values can stand only once.
# Legend:
# A2780 cells = test: MTT viability assay, parental A2780 cells, with or without PTX; format: cell-based, human; details: for Increase of PTX toxicity against parental A2780 cells: 15 µM compound with or without 500 nM PTX, 48 h, MTT; for Mean % Survival / % Survival (individual sample): A2780 cells; for Mean % Survival / viability at 15 µM: mean of 8 or 12 samples; for % Survival (individual sample): single samples; for viability at 15 µM: Homo sapiens, A2780, A2780 cells, read-out: Mean % Survival
# Procedure, shortened: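 A2780 and doxorubicin-selected (100 nM) P-gp-overexpressing A2780-ADR cells, 3,000/well in RPMI + 10% FBS, were exposed to compounds, with or without chemotherapeutic, for 48 h at 37 °C. MTT read at 570 nm after 4 h; survival expressed as percent of vehicle, or vehicle-plus-chemotherapeutic, control.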
# P-gp = target: T1, P-gp (Homo sapiens, UniProt P08183); test: LC-MS/MS intracellular accumulation assay with or without tariquidar (P-gp transport substrate test) in DU145-TXR cells; format: in vitro ADME; details: for P-gp transport substrate assessment / Intracellular accumulation (normalized ratio of compound to internal standard), Trial 1, + TQR / Intracellular accumulation (normalized ratio of compound to internal standard), Trial 2, + TQR / Intracellular accumulation (normalized ratio of compound to internal standard), Trial 1, - TQR / Intracellular accumulation (normalized ratio of compound to internal standard), Trial 2, - TQR: DU145-TXR, 2.5 h; for P-gp transport substrate assessment: 5 µM compound with or without 500 nM tariquidar, LC-MS/MS; for Intracellular accumulation (normalized ratio of compound to internal standard), Trial 1, + TQR / Intracellular accumulation (normalized ratio of compound to internal standard), Trial 2, + TQR / Intracellular accumulation (normalized ratio of compound to internal standard), Trial 1, - TQR / Intracellular accumulation (normalized ratio of compound to internal standard), Trial 2, - TQR: 5 µM compound, mean ± SD, triplicate; for Intracellular accumulation (normalized ratio of compound to internal standard), Trial 1, + TQR / Intracellular accumulation (normalized ratio of compound to internal standard), Trial 2, + TQR: with 500 nM tariquidar; for Intracellular accumulation (normalized ratio of compound to internal standard), Trial 1, - TQR / Intracellular accumulation (normalized ratio of compound to internal standard), Trial 2, - TQR: without tariquidar; for P (- TQR vs + TQR), Trial 1 / P (- TQR vs + TQR), Trial 2: Student's T test of the mean; for Significance of accumulation with tariquidar, Trial 1 / Significance of accumulation with tariquidar, Trial 2: significant difference = likely P-gp transport substrate
# T1 construct: The MDR, P-gp overexpressing DU145-TXR cells were maintained under positive selection pressure; endogenous in cells; host or cells: DU145-TXR (paclitaxel-resistant sub-line of DU145 human prostate cancer cells)
# Procedure, shortened: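 Analyte peak area normalised to internal standard and to lysate protein (BSA curve); relative accumulation compared between −/+ TQR by Student's t-test. Daunorubicin served as P-gp substrate positive control.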
# T1 sequence (P08183 whole entry): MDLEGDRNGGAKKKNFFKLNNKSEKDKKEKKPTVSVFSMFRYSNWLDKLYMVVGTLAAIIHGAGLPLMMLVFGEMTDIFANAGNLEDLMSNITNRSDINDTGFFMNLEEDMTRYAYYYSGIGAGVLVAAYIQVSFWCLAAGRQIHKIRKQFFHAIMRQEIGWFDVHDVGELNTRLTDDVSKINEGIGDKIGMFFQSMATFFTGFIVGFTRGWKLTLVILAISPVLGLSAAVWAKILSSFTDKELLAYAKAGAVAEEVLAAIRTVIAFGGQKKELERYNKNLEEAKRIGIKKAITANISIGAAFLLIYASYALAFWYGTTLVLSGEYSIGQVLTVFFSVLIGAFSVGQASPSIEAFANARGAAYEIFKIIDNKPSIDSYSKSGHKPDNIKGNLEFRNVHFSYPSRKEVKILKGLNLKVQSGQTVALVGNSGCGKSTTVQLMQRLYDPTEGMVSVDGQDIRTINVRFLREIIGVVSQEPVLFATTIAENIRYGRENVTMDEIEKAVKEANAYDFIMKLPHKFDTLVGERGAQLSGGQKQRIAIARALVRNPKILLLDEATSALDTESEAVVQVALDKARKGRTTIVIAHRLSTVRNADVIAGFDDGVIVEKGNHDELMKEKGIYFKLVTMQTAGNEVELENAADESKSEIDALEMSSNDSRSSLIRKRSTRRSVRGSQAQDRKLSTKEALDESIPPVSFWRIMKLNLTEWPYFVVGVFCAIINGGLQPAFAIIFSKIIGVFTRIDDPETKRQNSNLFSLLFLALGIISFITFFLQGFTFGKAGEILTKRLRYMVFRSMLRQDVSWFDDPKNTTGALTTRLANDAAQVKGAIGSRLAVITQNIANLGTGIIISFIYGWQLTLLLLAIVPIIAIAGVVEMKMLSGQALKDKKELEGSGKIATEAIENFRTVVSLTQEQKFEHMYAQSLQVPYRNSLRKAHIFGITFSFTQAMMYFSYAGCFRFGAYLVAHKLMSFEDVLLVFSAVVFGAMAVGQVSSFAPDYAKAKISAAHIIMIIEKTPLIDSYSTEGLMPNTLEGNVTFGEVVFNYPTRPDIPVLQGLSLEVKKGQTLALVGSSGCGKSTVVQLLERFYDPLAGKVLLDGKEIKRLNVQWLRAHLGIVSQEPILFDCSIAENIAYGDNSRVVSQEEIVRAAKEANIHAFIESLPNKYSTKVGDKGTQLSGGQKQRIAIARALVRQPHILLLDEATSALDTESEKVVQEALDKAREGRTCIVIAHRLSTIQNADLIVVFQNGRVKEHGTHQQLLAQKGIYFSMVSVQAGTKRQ
"Intracellular accumulation (normalized ratio of compound to internal standard), Trial 1, + TQR (P-gp)","Intracellular accumulation (normalized ratio of compound to internal standard), Trial 2, + TQR (P-gp)","Intracellular accumulation (normalized ratio of compound to internal standard), Trial 1, - TQR (P-gp)","Intracellular accumulation (normalized ratio of compound to internal standard), Trial 2, - TQR (P-gp)","P (- TQR vs + TQR), Trial 1 (P-gp)","P (- TQR vs + TQR), Trial 2 (P-gp)","Significance of accumulation with tariquidar, Trial 1 (P-gp)","Significance of accumulation with tariquidar, Trial 2 (P-gp)",SMILES,Increase of PTX toxicity against parental A2780 cells (A2780 cells),Mean % Survival (A2780 cells; 15 µM compound + 500 nM PTX) [%],% Survival (individual sample) (A2780 cells; 15 µM compound + 500 nM PTX),% Survival (individual sample) (A2780 cells; 15 µM compound alone) [%],viability at 15 µM (A2780 cells; 15 µM compound alone) [%],P-gp transport substrate assessment (P-gp)
0.013 ± 0.004,0.013 ± 0.001,0.012 ± 0.002,0.011 ± 0.002,0.7,0.2,N.S. (P > 0.05 = not significant (N.S.)),N.S. (P > 0.05 = not significant (N.S.)),"Cc1onc(-c2ccccc2)c1-c1nnc(Cn2cnc3ccccc3c2=O)o1 [Compound 111, Cc1onc(c1-c1nnc(Cn2cnc3ccccc3c2=O)o1)-c1ccccc1]",did not greatly increase the toxicity of PTX against the parental A2780 cells,14.4,13%,102,94,unlikely to be transport substrates of P-gp
0.146 ± 0.018,0.209 ± 0.014,0.049 ± 0.005,0.058 ± 0.018,0.0008,0.0003,*** (P < 0.001 = ***),*** (P < 0.001 = ***),"O=C(NCc1cccc(F)c1)c1nnn2c1Sc1c(C(=O)NCc3cccc(F)c3)nnn1CC2 [Compound 122, Fc1cccc(CNC(=O)c2nnn3CCn4nnc(C(=O)NCc5cccc(F)c5)c4Sc23)c1]",did not greatly increase the toxicity of PTX against the parental A2780 cells,13.6,12% and 14%,,76.5,potential P-gp transport substrates

SMILES,"Intracellular accumulation (normalized ratio of compound to internal standard), Trial 1, + TQR (P-gp)","Intracellular accumulation (normalized ratio of compound to internal standard), Trial 2, + TQR (P-gp)","Intracellular accumulation (normalized ratio of compound to internal standard), Trial 1, - TQR (P-gp)","Intracellular accumulation (normalized ratio of compound to internal standard), Trial 2, - TQR (P-gp)","P (- TQR vs + TQR), Trial 1 (P-gp)","P (- TQR vs + TQR), Trial 2 (P-gp)","Significance of accumulation with tariquidar, Trial 1 (P-gp)","Significance of accumulation with tariquidar, Trial 2 (P-gp)",Increase of PTX toxicity against parental A2780 cells (A2780 cells),Mean % Survival (A2780 cells; 15 µM compound + 500 nM PTX) [%],% Survival (individual sample) (A2780 cells; 15 µM compound + 500 nM PTX),% Survival (individual sample) (A2780 cells; 15 µM compound alone) [%],viability at 15 µM (A2780 cells; 15 µM compound alone) [%],P-gp transport substrate assessment (P-gp)
"O=C(c1nc(-c2ccccn2)no1)N1CCN(c2nsc3ccccc23)CC1 [Compound 124, O=C(N1CCN(CC1)c1nsc2ccccc12)c1nc(no1)-c1ccccn1]",0.061 ± 0.011,0.055 ± 0.009,0.006 ± 0.001,0.007 ± 0.002,0.001,0.0008,** (P < 0.01 = **),*** (P < 0.001 = ***),did not greatly increase the toxicity of PTX against the parental A2780 cells,14.5,10%,86,89.5,potential P-gp transport substrates
